Our source for the Ki values is ChEMBL document CHEMBL1124237, “Linear free energy relationship studies of enzyme active site binding: thymidylate synthase” (J Med Chem, 1988).

Assay [1] concerns the target Thymidylate synthase (Mus musculus, UniProt P07607). Briefly: Inhibitory effect on murine leukemia (L1210) thymidylate synthase.
The target of assay [2] is T1, Thymidylate synthase (Lactobacillus casei, UniProt P00469).
T1 sequence (P00469 whole entry): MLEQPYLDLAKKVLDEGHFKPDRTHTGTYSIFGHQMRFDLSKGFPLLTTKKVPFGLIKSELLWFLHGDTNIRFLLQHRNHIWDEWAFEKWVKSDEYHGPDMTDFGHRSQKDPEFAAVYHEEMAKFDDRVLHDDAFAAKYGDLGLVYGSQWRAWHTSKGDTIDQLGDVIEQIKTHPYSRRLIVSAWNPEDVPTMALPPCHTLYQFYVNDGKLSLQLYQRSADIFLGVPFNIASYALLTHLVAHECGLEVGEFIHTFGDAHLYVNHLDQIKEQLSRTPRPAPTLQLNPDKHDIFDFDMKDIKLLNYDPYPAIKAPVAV
Kind of assay: Inhibitory effect on Lactobacillus casei thymidylate synthase. Also noted: species or system Lacticaseibacillus casei.

Assay [3] has as its target Thymidylate synthase (Homo sapiens, UniProt P04818). Kind of assay: Inhibitory effect on human lymphoblast (Molt/4F) thymidylate synthase.

Each structure is given as a SMILES string.

What is called Ki is a dissociation constant, usually derived from enzyme kinetics or from competition with a known ligand.

Sequence of Thymidylate synthase (Mus musculus, UniProt P07607) (P07607 whole entry): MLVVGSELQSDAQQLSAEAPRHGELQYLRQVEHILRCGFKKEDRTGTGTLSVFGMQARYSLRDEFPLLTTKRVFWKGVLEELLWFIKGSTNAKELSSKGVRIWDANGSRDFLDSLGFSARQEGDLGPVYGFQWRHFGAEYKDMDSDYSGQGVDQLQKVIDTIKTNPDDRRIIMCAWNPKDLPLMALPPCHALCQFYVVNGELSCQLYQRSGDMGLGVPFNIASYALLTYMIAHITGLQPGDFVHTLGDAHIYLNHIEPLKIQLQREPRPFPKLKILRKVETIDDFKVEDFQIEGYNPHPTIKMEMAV
Sequence of Thymidylate synthase (Homo sapiens, UniProt P04818) (P04818 whole entry): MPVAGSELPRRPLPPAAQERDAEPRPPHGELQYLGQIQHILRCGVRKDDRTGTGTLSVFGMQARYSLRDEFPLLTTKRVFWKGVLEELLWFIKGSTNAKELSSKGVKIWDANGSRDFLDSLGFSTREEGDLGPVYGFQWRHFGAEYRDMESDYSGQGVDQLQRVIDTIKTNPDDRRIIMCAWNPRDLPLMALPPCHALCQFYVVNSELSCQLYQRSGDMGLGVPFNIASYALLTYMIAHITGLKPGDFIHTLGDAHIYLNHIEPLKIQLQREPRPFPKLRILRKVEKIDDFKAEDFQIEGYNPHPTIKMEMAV

For the compound `O=c1[nH]c(=O)n([C@H]2C[C@H](O)[C@@H](COP(=O)(O)O)O2)cc1-c1ccc([N+](=O)[O-])cc1`, the Ki is 48.3 µM on Thymidylate synthase [1] and 6.42 µM on Thymidylate synthase [2].

On to `O=c1[nH]c(=O)n([C@H]2C[C@H](O)[C@@H](COP(=O)(O)O)O2)cc1-c1ccccc1`, for which the Ki at Thymidylate synthase [1] was determined as 12.2 µM; at Thymidylate synthase [2], 0.96 µM.

As for `Cc1ccc(-c2cn([C@H]3C[C@H](O)[C@@H](COP(=O)(O)O)O3)c(=O)[nH]c2=O)cc1`, the Ki on Thymidylate synthase [1] worked out at 8.3 µM.

Regarding `COc1ccc(-c2cn([C@H]3C[C@H](O)[C@@H](COP(=O)(O)O)O3)c(=O)[nH]c2=O)cc1`, the Ki was 33 µM on Thymidylate synthase [1] and 1.21 µM on Thymidylate synthase [2].

With `Nc1ccc(-c2cn([C@H]3C[C@H](O)[C@@H](COP(=O)(O)O)O3)c(=O)[nH]c2=O)cc1`, the Ki was 11.3 µM at Thymidylate synthase [1] and 1.13 µM at Thymidylate synthase [2].

Compound `O=c1[nH]c(=O)n([C@H]2C[C@H](O)[C@@H](COP(=O)(O)O)O2)cc1-c1ccc(OCc2ccccc2)cc1` yielded a Ki on Thymidylate synthase [1] of 11.2 µM.

With `O=c1[nH]c(=O)n([C@H]2C[C@H](O)[C@@H](COP(=O)(O)O)O2)cc1-c1ccc(O)cc1`, the Ki at Thymidylate synthase [1] was determined as 179 µM; at Thymidylate synthase [3], 134 µM; on Thymidylate synthase [2], 7.62 µM.

As for `CN(C)c1ccc(-c2cn([C@H]3C[C@H](O)[C@@H](COP(=O)(O)O)O3)c(=O)[nH]c2=O)cc1`, the Ki on Thymidylate synthase [1] worked out at 48 µM; on Thymidylate synthase [2], 1.41 µM.

Consider `N#Cc1ccc(-c2cn([C@H]3C[C@H](O)[C@@H](COP(=O)(O)O)O3)c(=O)[nH]c2=O)cc1`, for which the Ki on Thymidylate synthase [1] is 97.8 µM; on Thymidylate synthase [3], 114 µM; at Thymidylate synthase [2] it was 8.75 µM.

For `O=c1[nH]c(=O)n([C@H]2C[C@H](O)[C@@H](COP(=O)(O)O)O2)cc1-c1ccc(C(F)(F)F)cc1`, the values for the Ki at Thymidylate synthase [1] and at Thymidylate synthase [2] were 93.4 µM and 4.93 µM, respectively.

Regarding `NC(=O)c1ccc(-c2cn([C@H]3C[C@H](O)[C@@H](COP(=O)(O)O)O3)c(=O)[nH]c2=O)cc1`, the Ki on Thymidylate synthase [1] was determined as 113 µM; on Thymidylate synthase [3], 119 µM; at Thymidylate synthase [2], 5.67 µM.

For `O=c1[nH]c(=O)n([C@H]2C[C@H](O)[C@@H](COP(=O)(O)O)O2)cc1-c1ccc(Br)cc1`, the figures for the Ki at Thymidylate synthase [1] and at Thymidylate synthase [2] were 29.2 µM and 1.81 µM, respectively.

Regarding `COC(=O)c1ccc(-c2cn([C@H]3C[C@H](O)[C@@H](COP(=O)(O)O)O3)c(=O)[nH]c2=O)cc1`, the Ki on Thymidylate synthase [1] was 46.1 µM; on Thymidylate synthase [3], 102 µM; on Thymidylate synthase [2], 3.99 µM.
